Test results reported in patent publication US20080233102A1, “Drug Therapy for Celiac Sprue” (priority 2002, published 2008).
Like-named read-outs stand apart in the source and are kept apart here.

Tests used:
[1] = biological target: T1, recombinant human tissue transglutaminase (Homo sapiens, UniProt P21980); assay: tTGase assay with recombinant human tissue transglutaminase; format: biochemical; conditions: dihydroisoxazole inhibitors of human tTGase; for Ki: competitive with Cbz-Gln-Gly substrate, read-out: Dissociation Constants (Kl); for Inhibition Rate Constants (kinh): irreversible inactivation
T1 construct: made in house
T1 sequence (P21980 1-687): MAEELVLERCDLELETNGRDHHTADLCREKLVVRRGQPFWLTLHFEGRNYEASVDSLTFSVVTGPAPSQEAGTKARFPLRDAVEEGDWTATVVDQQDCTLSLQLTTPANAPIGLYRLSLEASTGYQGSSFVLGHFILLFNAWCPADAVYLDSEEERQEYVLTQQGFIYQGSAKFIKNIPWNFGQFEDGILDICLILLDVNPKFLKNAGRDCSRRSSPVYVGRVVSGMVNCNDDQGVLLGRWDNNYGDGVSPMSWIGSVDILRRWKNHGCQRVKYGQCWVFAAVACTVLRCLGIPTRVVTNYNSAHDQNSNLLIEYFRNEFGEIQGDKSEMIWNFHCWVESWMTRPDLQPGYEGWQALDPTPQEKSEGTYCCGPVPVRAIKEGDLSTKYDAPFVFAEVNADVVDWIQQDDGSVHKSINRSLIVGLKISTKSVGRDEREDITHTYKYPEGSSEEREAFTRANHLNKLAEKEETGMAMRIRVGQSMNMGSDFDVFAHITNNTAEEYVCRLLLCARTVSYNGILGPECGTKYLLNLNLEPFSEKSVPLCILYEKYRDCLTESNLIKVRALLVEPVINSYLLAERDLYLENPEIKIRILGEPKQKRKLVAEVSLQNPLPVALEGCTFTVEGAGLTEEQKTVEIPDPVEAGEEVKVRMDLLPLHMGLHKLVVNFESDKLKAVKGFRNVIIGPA

[2] = biological target: T2, Tissue transglutaminase (tTG) (Homo sapiens, UniProt P21980); assay: Inhibition of tTG (residual activity, glutamate dehydrogenase coupled assay); format: biochemical
T2 sequence (P21980 1-687): T1 sequence (P21980 1-687)
Protocol: Inhibition of tTG. tTG (9 μM) was inactivated in 200 mM MOPS, pH=7.1, 5 mM CaCl2, 1 mM ETDA at 30° C. containing 0-600 μM Pro-Gln-Pro-Aci-Leu-Pro-Tyr. Every 20 minutes a 40 μl aliquot was removed and residual tTG activity was assayed in 0.5 ml reaction containing 200 mM MOPS, pH=7.1, 5 mM CaCl2, 1 mM ETDA, 10 mM α-ketoglutarate, 180 U/ml glutamate dehydrogenase (Biozyme laboratories) at 30° C. for 20 minutes by measuring the decrease of absorption at 340 nm. Residual activity was corrected by the corresponding uninhibited tTG reaction (0 μM inhibitor) and fitted to an exponential decay. Kinetic parameters were obtained by double-reciprocal plotting of the apparent second-order inactivation constant or, for isatin analogs, by fitting the data for reversible inhibitors to a standard Michaelis Menten equation with a competitive inhibition constant.

[3] = tested on: bovine epidermal transglutaminase; conditions: Castelhano et al., Bioorg. Chem. (1988) 16, 335-340; cited from earlier work
[4] = isatin derivatives, reversible, competitive inhibition constant, read-out: Kl
[5] = dihydroisoxazoles, 200 mM MOPS, pH=7.1, 30° C., read-out: KI

Compound | kinh/Kl [1] | Ki [1] | Inhibition Rate Constants (kinh) [1] | also measured
O=C(N[C@@H](Cc1cccc(F)c1)C(=O)NCC1CC(Br)=NO1)OCc1ccccc1 (stereo partly drawn) [1d, {(S)-1-[(3-Bromo-4,5-dihydro-isoxazol-5-ylmethyl)-carbamoyl]-2-(3-fluoro-phenyl)-ethyl}-carbamic acid benzyl ester] | 2200 min^−1M^−1 | 390 µM | 0.84 min⁻¹ | 
O=C1Nc2cc(-c3ccccc3)ccc2C1=O [R1 = R3 = H; R2 = Ph] |  |  |  | Ki [2, 4]: 350 µM
O=C(N[C@@H](Cc1ccccc1)C(=O)OCC1CC(Br)=NO1)OCc1ccccc1 (stereo partly drawn) [2a, (S)-2-Benzyloxycarbonylamino-3-phenyl-propionic acid 3-bromo-4,5-dihydro-isoxazol-5-ylmethyl ester] | 230 min^−1M^−1 |  | 0.32 min⁻¹ | 
C[C@H](NC(=O)OCc1ccccc1)C(=O)NCC1CC(Br)=NO1 (stereo partly drawn) [1i, {(S)-1-[(3-Bromo-4,5-dihydro-isoxazol-5-ylmethyl)-carbamoyl]-ethyl}-carbamic acid benzyl ester] | 450 min^−1M^−1 |  | 0.41 min⁻¹ | 
O=C(N[C@@H](Cc1ccc(O)cc1)C(=O)NCC1CC(Br)=NO1)OCCc1ccccc1 (stereo partly drawn) [3d, {(S)-1-[(3-Bromo-4,5-dihydro-isoxazol-5-ylmethyl)-carbamoyl]-2-(4-hydroxy-phenyl)-ethyl}-carbamic acid phenethyl ester] | 1500 min^−1M^−1 | 61 µM | 0.093 min⁻¹ | 
O=C(N[C@H](Cc1ccccc1)C(=O)NCC1CC(Br)=NO1)OCc1ccccc1 (stereo partly drawn) [1h, {(R)-1-[(3-Bromo-4,5-dihydro-isoxazol-5-ylmethyl)-carbamoyl]-2-phenyl-ethyl}-carbamic acid benzyl ester] |  |  | 0.29 min⁻¹ | 
O=C(N[C@@H](Cc1ccc(O)cc1)C(=O)NCC1CC(Br)=NO1)OCc1ccc2ccccc2c1 (stereo partly drawn) [3e, {(S)-1-[(3-Bromo-4,5-dihydro-isoxazol-5-ylmethyl)-carbamoyl]-2-(4-hydroxy-phenyl)-ethyl}-carbamic acid naphthalen-2-ylmethyl ester] | 1600 min^−1M^−1 | 43 µM | 0.070 min⁻¹ | 
O=C(NCC1CC(Br)=NO1)Nc1ccccc1 (stereo not drawn) [1-(3-Bromo-4,5-dihydro-isoxazol-5-ylmethyl)-3-phenyl-urea] |  |  |  | Ki [2, 5]: 1100 µM
O=C(NCC1CC(Br)=NO1)Nc1cc(C(F)(F)F)ccc1Cl (stereo not drawn) [1-(3-Bromo-4,5-dihydro-isoxazol-5-ylmethyl)-3-(2-chloro-5-trifluoromethyl-phenyl)-urea] |  |  |  | Ki [2, 5]: 910 µM
O=C(N[C@@H](Cc1ccc(O)cc1)C(=O)NCC1CC(Br)=NO1)OCc1cccnc1 (stereo partly drawn) [3c, {(S)-1-[(3-Bromo-4,5-dihydro-isoxazol-5-ylmethyl)-carbamoyl]-2-(4-hydroxy-phenyl)-ethyl}-carbamic acid pyridin-3-ylmethyl ester] | 2700 min^−1M^−1 | 78 µM | 0.21 min⁻¹ | 
O=C(N[C@@H](Cc1ccccc1)C(=O)NCC1CC(Br)=NO1)OCc1ccccc1 (stereo partly drawn) [1a, {(S)-1-[(3-Bromo-4,5-dihydro-isoxazol-5-ylmethyl)-carbamoyl]-2-phenyl-ethyl}-carbamic acid benzyl ester] |  |  | 1.3 min⁻¹ | Inhibition of bovine epidermal transglutaminase [3]: inhibitor
Cc1ccc(C)c(NC(=O)NCC2CC(Br)=NO2)c1 (stereo not drawn) [1-(3-Bromo-4,5-dihydro-isoxazol-5-ylmethyl)-3-(2,5-dimethyl-phenyl)-urea] |  |  |  | Ki [2, 5]: 960 µM
O=C(N[C@@H](Cc1c[nH]c2ccc(O)cc12)C(=O)NCC1CC(Br)=NO1)OCc1ccccc1 (stereo partly drawn) [1f, {(S)-1-[(3-Bromo-4,5-dihydro-isoxazol-5-ylmethyl)-carbamoyl]-2-(5-hydroxy-1H-indol-3-yl)-ethyl}-carbamic acid benzyl ester] | 2800 min^−1M^−1 | 110 µM | 0.31 min⁻¹ | 
O=C(N[C@@H](Cc1ccc(O)cc1)C(=O)NCC1CC(Br)=NO1)OCC1=Cc2ccccc2S1(=O)=O (stereo partly drawn) [3f, {(S)-1-[(3-Bromo-4,5-dihydro-isoxazol-5-ylmethyl)-carbamoyl]-2-(4-hydroxy-phenyl)-ethyl}-carbamic acid 1,1-dioxo-1H-1λ6-benzo[b]thiophen-2-ylmethyl ester] | 4400 min^−1M^−1 | 87 µM | 0.38 min⁻¹ | 
O=C1Nc2ccccc2C1=O [R1 = R2 = R3 = H] |  |  |  | Ki [2, 4]: 860 µM
O=C1Nc2ccc([N+](=O)[O-])cc2C1=O [R2 = R3 = H, R1 = NO2] |  |  |  | Ki [2, 4]: 48 µM
O=C(N[C@@H](Cc1c[nH]c2ccccc12)C(=O)NCC1CC(Br)=NO1)OCc1ccccc1 (stereo partly drawn) [1e, {(S)-1-[(3-Bromo-4,5-dihydro-isoxazol-5-ylmethyl)-carbamoyl]-2-(1H-indol-3-yl)-ethyl}carbamic acid benzyl ester] | 2500 min^−1M^−1 | 310 µM | 0.78 min⁻¹ | 
O=C(NCC1CC(Br)=NO1)Nc1ccc(Cl)cc1C(F)(F)F (stereo not drawn) [1-(3-Bromo-4,5-dihydro-isoxazol-5-ylmethyl)-3-(4-chloro-2-trifluoromethyl-phenyl)-urea] |  |  |  | Ki [2, 5]: 1300 µM
O=C1Nc2c(cccc2-c2ccccc2)C1=O [R1 = R2 = H; R3 = Ph] |  |  |  | Ki [2, 4]: 400 µM
CC(=O)N[C@@H](Cc1ccccc1)C(=O)NCC1CC(Br)=NO1 (stereo partly drawn) [3a, (S)-2-Acetylamino-N-(3-bromo-4,5-dihydro-isoxazol-5-ylmethyl)-3-phenyl-propionamide] | 220 min^−1M^−1 |  | 0.60 min⁻¹ | 
O=C1Nc2ccc(I)cc2C1=O [R2 = R3 = H; R1 = I] |  |  |  | Ki [2, 4]: 22 µM
CN(CC1CC(Br)=NO1)C(=O)[C@H](Cc1ccccc1)NC(=O)OCc1ccccc1 (stereo partly drawn) [2b, {(S)-1-[(3-Bromo-4,5-dihydro-isoxazol-5-ylmethyl)-methyl-carbamoyl]-2-phenyl-ethyl}-carbamic acid benzyl ester] | 730 min^−1M^−1 |  | 0.19 min⁻¹ | 
O=C(N[C@@H](Cc1ccc(O)cc1)C(=O)NCC1CC(Br)=NO1)OCc1ccncc1 (stereo partly drawn) [3b, {(S)-1-[(3-Bromo-4,5-dihydro-isoxazol-5-ylmethyl)-carbamoyl]-2-(4-hydroxy-phenyl)-ethyl}-carbamic acid pyridin-4-ylmethyl ester] | 1500 min^−1M^−1 | 81 µM | 0.12 min⁻¹ | 
O=C(N[C@@H](Cc1c[nH]c2ccc(O)cc12)C(=O)NCC1CC(Br)=NO1)OCC1=Cc2ccccc2S1(=O)=O (stereo partly drawn) [compound 4, {(S)-1-[(3-Bromo-4,5-dihydro-isoxazol-5-ylmethyl)-carbamoyl]-2-(5-hydroxy-1H-indol-3-yl)-ethyl}-carbamic acid 1,1-dioxo-1H-1λ6-benzo[b]thiophen-2-ylmethyl ester] | 6800 min^−1M^−1 | 79 µM | 0.54 min⁻¹ | 
O=C(C[C@H](NC(=O)OCc1ccccc1)C(=O)NCC1CC(Br)=NO1)NCc1ccccc1 (stereo partly drawn) [1g, {(S)-2-Benzylcarbamoyl-1-[(3-bromo-4,5-dihydro-isoxazol-5-ylmethyl)-carbamoyl]-ethyl}-carbamic acid benzyl ester] | 2300 min^−1M^−1 |  | 0.54 min⁻¹ | 
O=C1Nc2ccc(F)cc2C1=O [R2 = R3 = H; R1 = F] |  |  |  | Ki [2, 4]: 18 µM
O=C(N[C@@H](Cc1ccc(O)cc1)C(=O)NCC1CC(Br)=NO1)OCc1ccccc1 (stereo partly drawn) [1b] | 2000 min^−1M^−1 | 420 µM | 0.86 min⁻¹ | 
O=C(N[C@@H](Cc1ccc(F)cc1)C(=O)NCC1CC(Br)=NO1)OCc1ccccc1 (stereo partly drawn) [1c, {(S)-1-[(3-Bromo-4,5-dihydro-isoxazol-5-ylmethyl)-carbamoyl]-2-(4-fluoro-phenyl)-ethyl}-carbamic acid benzyl ester] | 980 min^−1M^−1 | 430 µM | 0.42 min⁻¹ | 
O=C(NCC1CC(Br)=NO1)Nc1ccc(F)cc1 (stereo not drawn) [1-(3-Bromo-4,5-dihydro-isoxazol-5-ylmethyl)-3-(4-fluoro-phenyl)-urea] |  |  |  | Ki [2, 5]: 1300 µM
